We go through 5 molecules from patent US20110301168A1, “CYCLOALKANE[B]AZAINDOLE ANTAGONISTS OF PROSTAGLANDIN D2 RECEPTORS” (AMIRA PHARMACEUTICALS, INC., priority 2008, published 2011).

The test system of one experiment is mouse model of allergic rhinitis. The experiment in a line: Mouse allergic rhinitis model (OVA-induced sneezing and nasal rubbing). In kind it is in vivo. The settings on record: 10 mg/kg administered as the sodium salt, oral gavage 1 hour prior to OVA challenge; significantly reduced, approximately. On the procedure: The compounds ability to inhibit allergen-induced sneezing and nasal rubbing is assessed using a mouse model of allergic rhinitis. Methods were adapted from those detailed in Nakaya, M., et al. 2006, Laboratory Investigation, 86:917-926. Female BALB/c mice (20-25 g) are immunized by an intraperitoneal injection (i.p.) of 10 μg ovalbumin (OVA) complexed with alum in a volume 0.2 mL on days 0 and 7. Fourteen days later (day 21) mice are challenged intranasally with 20 μl of a 10 mg/mL solution of OVA. The challenge period occurs daily from days 21 to day 23. Mice (5-7/group) are randomly assigned to receive either compound or vehicle and are treated by oral gavage 1 hour prior to OVA challenge. The number of sneezes and nasal rubs are counted by an independent blinded observe during a period of 8 minutes immediately following OVA challenge on days 21, 23 and […]. A significant increase in allergen-induced sneezing and nasal rubbing occurs over the 3-day challenge period. Inhibition of this effect by select compounds is determined statistically using Graphpad prism.
Regarding `CN(C1CCc2c(c3ncccc3n2CC(=O)O)C1)S(=O)(=O)c1ccc(F)cc1` (racemic) [Compound 9, {8-[N-(4-fluoro-benzenesulfonyl)-N-methyl-amino]-6,7,8,9-tetrahydro-pyrido[3,2-b]indol-5-yl}-acetic acid], the “reduction of sneezing and nasal rubs versus vehicle-treated mice” value is 40-50%.

For a further experiment, the target named is T1, human DP2 receptor (Homo sapiens, UniProt Q9Y5Y4).
T1 construct: expressed in transfected cells; membrane preparation
T1 sequence (Q9Y5Y4 1-395): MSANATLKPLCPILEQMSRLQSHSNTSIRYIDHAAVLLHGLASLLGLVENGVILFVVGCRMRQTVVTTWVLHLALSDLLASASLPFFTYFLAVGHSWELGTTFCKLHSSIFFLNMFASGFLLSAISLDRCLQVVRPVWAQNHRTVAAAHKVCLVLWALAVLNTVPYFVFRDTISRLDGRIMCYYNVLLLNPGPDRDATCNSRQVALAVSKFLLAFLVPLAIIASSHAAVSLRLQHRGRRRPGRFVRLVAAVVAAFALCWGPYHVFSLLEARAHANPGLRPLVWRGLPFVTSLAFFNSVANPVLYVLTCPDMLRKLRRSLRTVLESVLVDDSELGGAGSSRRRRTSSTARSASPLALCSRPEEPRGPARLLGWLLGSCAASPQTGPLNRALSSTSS
The experiment in a line: DP2/CRTH2 radioligand binding assay using [3H]PGD2. Conditions: membranes of HEK293 cells expressing recombinant human DP2, 1 nM [3H]PGD2; read-out: hDP2. On the procedure:
The ability of a compound to bind to the human DP2 receptor is assessed via a radioligand binding assay using [^3H]PGD2. HEK293 cells stably expressing recombinant human DP2 are resuspended in 10 mM Hepes, 7.4 containing 1 mM DTT, lysed and centrifuged at 75,000×g to pellet the membranes. The membranes are resuspended in 10 mM Hepes, 7.4 containing 1 mM DTT and 10% glycerol to approximately 5 mg protein/ml. Membranes (2-10 μg protein/well) are incubated in 96-well plates with 1 nM [^3H]PGD2 and test compound in Assay Buffer (50 mM Hepes, 10 mM MnCl2, 1 mM EDTA, plus or minus 0.2% human serum albumin, pH 7.4) for 60 minutes at room temperature. The reactions are terminated by rapid filtration through Whatman GF/C glass fibre filter plates. The filter plates were pre-soaked in 0.33% polythylenimine for 30 minutes at room temperature then washed in Wash Buffer (50 mM Hepes, 0.5 M NaCl pH 7.4) prior to harvesting. After harvesting, the filter plates are washed 3 times with 1 ml cold Wash Buffer then dried. Scintillant is then added to the plates and the radioactivity retained on the filters is determined on a Packard TopCount (Perkin Elmer). Specific binding is determined as total radioactive binding minus non-specific binding in the presence of 10 μM PGD2. IC50s were determined using GraphPad prism analysis of drug titration curves.
For `CN(C1CCc2c(c3nccnc3n2CC(=O)O)C1)S(=O)(=O)c1ccc(F)cc1` (stereo not drawn) [Compound 24, {8-[N-(4-fluoro-benzenesulfonyl)-N-methyl-amino]-6,7,8,9-tetrahydro-5H-pyrazino [2,3-b]indol-5-yl}acetic acid], the IC50 was greater than 100 nM.

For the molecule `CN(C1CCc2c(c3ncccc3n2CC(=O)O)C1)S(=O)(=O)c1ccc(F)cc1` (racemic) [Compound 9, {8-[N-(4-fluoro-benzenesulfonyl)-N-methyl-amino]-6,7,8,9-tetrahydro-pyrido[3,2-b]indol-5-yl}-acetic acid], the IC50 was less than 100 nM.

Regarding `CN([C@@H]1CCc2c(c3ncccc3n2CC(=O)O)C1)S(=O)(=O)c1ccc(F)cc1` (single isomer, unassigned) [Compound 10], the IC50 was less than 100 nM.

On to `CN(C1CCc2c(c3cccnc3n2CC(=O)O)C1)S(=O)(=O)c1ccc(F)cc1` (stereo not drawn) [Compound 23, {6-[N-(4-fluoro-benzenesulfonyl)-N-methyl-amino]-7,8-dihydro-5H-pyrido[2,3-b]indol-9(6H)-yl}-acetic acid], for which the IC50 was greater than 100 nM.

Regarding `CN([C@H]1CCc2c(c3ncccc3n2CC(=O)O)C1)S(=O)(=O)c1ccc(F)cc1` (single isomer, unassigned) [Compound 11], the IC50 was greater than 100 nM.
